Laboratory results taken from publication doi:10.1101/2023.04.18.537371v1 (bioRxiv, 2023).
Peptide text beside a SMILES is read from it.

What was measured:
[1] = Single-dose pharmacokinetics in SD rats; assay type: in vivo, SD rat
[2] = Single-dose pharmacokinetics in beagle dogs; assay type: in vivo, beagle dog; conditions: for AUC0-last: n=3, mean
[3] = In vitro protein binding, rapid equilibrium dialysis; assay type: in vitro ADME; conditions: human, plasma
[4] = In vitro blood to plasma partitioning; assay type: in vitro ADME, rat; conditions: for Mean erythrocyte to plasma ratio KE/P: rat whole blood, 37°C, 60 min
[5] = Plasma stability; assay type: in vitro ADME, SD rat
[6] = Plasma stability; assay type: in vitro ADME, cynomolgus monkey
[7] = Metabolism of FC-12738 in SD rat urine, feces and bile; assay type: in vivo; conditions: SC 10 mg/kg FC-12738 single
[8] = Excretion study in SD rats following single subcutaneous administration; assay type: in vivo, SD rat; conditions: for Accumulative Dose Recovery: 0 h, n=3, mean
[9] = target: T1, CYP1A2 (Homo sapiens, UniProt P05177); assay: biochemical; assay type: in vitro ADME
T1 sequence (P05177 1-516): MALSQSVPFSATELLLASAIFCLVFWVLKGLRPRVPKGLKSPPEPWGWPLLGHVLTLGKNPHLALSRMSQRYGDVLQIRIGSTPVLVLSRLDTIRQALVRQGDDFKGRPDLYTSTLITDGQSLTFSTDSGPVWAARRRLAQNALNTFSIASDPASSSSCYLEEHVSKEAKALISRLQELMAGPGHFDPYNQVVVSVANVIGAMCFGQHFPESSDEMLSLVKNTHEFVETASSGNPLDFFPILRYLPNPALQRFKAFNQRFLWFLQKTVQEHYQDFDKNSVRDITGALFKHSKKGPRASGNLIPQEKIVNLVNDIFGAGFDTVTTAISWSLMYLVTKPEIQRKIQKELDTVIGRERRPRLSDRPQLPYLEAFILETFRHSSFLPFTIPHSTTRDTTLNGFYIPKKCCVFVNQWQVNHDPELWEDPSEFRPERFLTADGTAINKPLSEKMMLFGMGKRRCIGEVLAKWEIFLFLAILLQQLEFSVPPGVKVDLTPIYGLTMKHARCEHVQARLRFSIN

[10] = target: CYP2C19 (Homo sapiens, UniProt P33261); assay: CYP450 inhibition assay; assay type: in vitro ADME
[11] = tested on: CYP3A; assay: CYP time-dependent inhibition assay; assay type: in vitro ADME, human
[12] = tested on: CYP1A2; assay type: in vitro ADME; conditions: cryopreserved human hepatocytes, three donors, 0.100 to 15.0 μM, 48 h, 37°C
[13] = target: P-gp (Homo sapiens, UniProt P08183); assay: Inhibition of P-gp in Caco-2 cells; assay type: in vitro ADME
[14] = target: OATP1B3 (Homo sapiens, UniProt Q9NPD5); assay: Transporter inhibition in HEK293 cells; assay type: in vitro ADME
[15] = male, SD, rat, plasma, iv, 2 mg/kg
[16] = male, SD, rat, plasma, sc, 10 mg/kg
[17] = male, beagle, dog, plasma, iv, 1 mg/kg
[18] = male, beagle, dog, plasma, sc, 5 mg/kg
[19] = male, SD, rat, urine, sc, 10 mg/kg
[20] = male, Sprague-Dawley, rat, bile, sc, 10 mg/kg
[21] = male, Sprague-Dawley, rat, feces, sc, 10 mg/kg
[22] = male, Sprague-Dawley, rat, urine + feces, sc, 10 mg/kg
[23] = male, Sprague-Dawley, rat, urine, sc, 10 mg/kg

P-gp, sequence (P08183 whole entry): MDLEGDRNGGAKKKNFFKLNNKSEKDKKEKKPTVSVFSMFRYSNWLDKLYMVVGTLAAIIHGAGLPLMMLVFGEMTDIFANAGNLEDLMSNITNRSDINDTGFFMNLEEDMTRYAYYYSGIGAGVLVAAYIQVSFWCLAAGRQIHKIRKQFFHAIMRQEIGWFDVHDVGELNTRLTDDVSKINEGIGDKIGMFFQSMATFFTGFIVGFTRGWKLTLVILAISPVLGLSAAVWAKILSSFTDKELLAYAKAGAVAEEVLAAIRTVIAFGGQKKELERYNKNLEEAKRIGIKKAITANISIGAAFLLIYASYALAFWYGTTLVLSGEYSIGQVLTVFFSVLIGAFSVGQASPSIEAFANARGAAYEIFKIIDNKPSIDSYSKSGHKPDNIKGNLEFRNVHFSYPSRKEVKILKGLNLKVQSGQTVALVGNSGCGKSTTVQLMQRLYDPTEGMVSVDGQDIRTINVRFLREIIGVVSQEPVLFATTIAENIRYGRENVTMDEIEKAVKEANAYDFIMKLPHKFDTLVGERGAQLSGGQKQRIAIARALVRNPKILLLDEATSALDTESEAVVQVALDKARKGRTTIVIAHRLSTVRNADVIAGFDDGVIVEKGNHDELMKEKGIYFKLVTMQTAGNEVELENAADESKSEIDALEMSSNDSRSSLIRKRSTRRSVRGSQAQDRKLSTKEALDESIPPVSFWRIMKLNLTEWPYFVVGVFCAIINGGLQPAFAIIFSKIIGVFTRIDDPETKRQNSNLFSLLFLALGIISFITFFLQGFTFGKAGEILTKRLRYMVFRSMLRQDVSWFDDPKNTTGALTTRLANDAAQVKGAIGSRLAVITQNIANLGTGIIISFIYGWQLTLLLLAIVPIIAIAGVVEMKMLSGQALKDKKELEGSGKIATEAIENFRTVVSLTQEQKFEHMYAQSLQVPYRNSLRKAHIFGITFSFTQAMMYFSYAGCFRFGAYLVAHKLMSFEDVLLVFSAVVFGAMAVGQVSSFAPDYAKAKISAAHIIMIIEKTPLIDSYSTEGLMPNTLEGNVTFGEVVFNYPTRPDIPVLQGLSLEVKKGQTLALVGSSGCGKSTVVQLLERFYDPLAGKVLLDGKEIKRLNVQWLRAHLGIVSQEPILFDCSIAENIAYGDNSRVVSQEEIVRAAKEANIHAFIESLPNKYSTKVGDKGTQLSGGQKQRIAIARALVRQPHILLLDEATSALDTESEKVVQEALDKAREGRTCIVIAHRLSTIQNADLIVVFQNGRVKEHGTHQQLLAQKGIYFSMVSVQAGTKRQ
CYP2C19, sequence (P33261 whole entry): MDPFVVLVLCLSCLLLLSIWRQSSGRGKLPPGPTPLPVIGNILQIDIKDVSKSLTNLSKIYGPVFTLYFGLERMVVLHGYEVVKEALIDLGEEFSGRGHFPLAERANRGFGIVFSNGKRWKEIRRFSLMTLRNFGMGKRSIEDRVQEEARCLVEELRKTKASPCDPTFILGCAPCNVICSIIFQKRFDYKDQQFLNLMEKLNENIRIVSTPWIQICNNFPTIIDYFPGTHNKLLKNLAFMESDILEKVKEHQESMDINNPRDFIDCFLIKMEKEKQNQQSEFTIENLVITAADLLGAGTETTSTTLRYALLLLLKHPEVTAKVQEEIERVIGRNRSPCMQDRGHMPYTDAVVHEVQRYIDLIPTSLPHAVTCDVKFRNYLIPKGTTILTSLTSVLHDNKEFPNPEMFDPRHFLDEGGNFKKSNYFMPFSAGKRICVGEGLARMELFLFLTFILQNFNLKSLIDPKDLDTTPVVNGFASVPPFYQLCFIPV
OATP1B3, sequence (Q9NPD5 whole entry): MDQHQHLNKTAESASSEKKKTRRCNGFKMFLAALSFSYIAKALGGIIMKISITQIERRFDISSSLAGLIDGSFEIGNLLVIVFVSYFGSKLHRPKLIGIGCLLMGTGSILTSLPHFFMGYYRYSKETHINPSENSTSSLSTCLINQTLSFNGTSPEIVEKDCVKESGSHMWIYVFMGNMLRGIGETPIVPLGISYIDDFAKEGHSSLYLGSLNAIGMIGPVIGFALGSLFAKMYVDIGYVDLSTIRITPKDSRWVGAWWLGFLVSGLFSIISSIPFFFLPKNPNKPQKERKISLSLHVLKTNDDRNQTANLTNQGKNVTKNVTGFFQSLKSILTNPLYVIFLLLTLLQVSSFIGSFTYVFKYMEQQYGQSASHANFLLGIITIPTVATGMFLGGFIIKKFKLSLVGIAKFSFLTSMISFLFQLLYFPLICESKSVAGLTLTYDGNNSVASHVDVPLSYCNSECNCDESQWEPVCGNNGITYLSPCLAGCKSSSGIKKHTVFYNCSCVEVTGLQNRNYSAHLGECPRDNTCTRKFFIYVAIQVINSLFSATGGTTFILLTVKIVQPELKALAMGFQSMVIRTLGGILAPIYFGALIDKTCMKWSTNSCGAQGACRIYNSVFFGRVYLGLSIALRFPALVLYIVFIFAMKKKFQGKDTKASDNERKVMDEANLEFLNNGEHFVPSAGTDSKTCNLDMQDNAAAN

In the case of CC(C)[C@@H](NC(=O)[C@H](N)Cc1ccc(O)cc1)C(=O)N[C@H](CC(=O)O)C(=O)N[C@H](CCCCN)C(=O)N[C@H](CCCNC(=N)N)C(=O)O [FC-12738, (D-Tyr)-(D-Val)-(D-Asp)-(D-Lys)-(D-Arg)] (HELM PEPTIDE1{[dY].[dV].[dD].[dK].[dR]}$$$$V2.0), the “Tolerability / adverse effects in-life” value ([1]; male SD rats, IV 2 mg/kg or SC 10 mg/kg single) is reported as “No adverse effect was observed”, the AUC(0-inf) [1, 15] is reported as 2830 ng·h/mL and the AUC(0-t) [1, 15] is reported as 2800 ng·h/mL. For the same compound, the C0 [1, 15] was 7830 ng/mL, the Vd [1, 15] was 0.309 L/kg and the clearance [1, 15] was 11.8 mL/min/kg. The half-life [1, 15] was 19.1 min, the AUC(0-inf) [1, 16] was 13000 ng·h/mL and the AUC(0-t) [1, 16] was 13000 ng·h/mL. For the same compound, the Cmax [1, 16] was 8430 ng/mL, the Tmax [1, 16] was 25 min and the bioavailability [1, 16] was 91.9%. For the same compound, the half-life [1, 16] was 40.8 min, the “Tolerability / adverse effects in-life” value ([2]; male beagle dogs, IV 1 mg/kg or SC 5 mg/kg single) was “No adverse effect was observed” and the AUC0-last ([2]; male beagle dogs, IV 1 mg/kg single) was 2850 ± 439 ng·h/mL. The AUC0-last ([2]; male beagle dogs, SC 5 mg/kg single) was 16100 ± 2510 ng·h/mL, the bioavailability ([2]; male beagle dogs, SC 5 mg/kg, calculated with mean AUC0-last and nominal dose) was 112% and the AUC(0-inf) [2, 17] was 2900 ng·h/mL. It also gave a C0 [2, 17] of 4820 ng/mL, a Vd [2, 17] of 0.302 L/kg and a clearance [2, 17] of 5.85 mL/min/kg. It also gave an AUC(0-inf) [2, 18] of 16200 ng·h/mL, a Cmax [2, 18] of 7300 ng/mL and a Tmax [2, 18] of 50 min. The half-life [2, 18] was 53 min, the fraction unbound at 6 h, 0.2 µM [3] was 0.428 and the fraction unbound at 6 h, 2 µM [3] was 0.47. For the same compound, the fraction unbound at 6 h, 10 µM [3] was 0.673, the “Mean erythrocyte to plasma ratio KE/P” value ([4]; 0.200 μM) was < 0.21 and the “Mean erythrocyte to plasma ratio KE/P” value ([4]; 2.00 μM) was < 0.11. For the same compound, the “Mean erythrocyte to plasma ratio KE/P” value ([4]; 10.0 μM) was < 0.03, the tissue to tissue ratio at 1 h, 0.2 µM ([4]; rat, whole blood) was 0.48 and the tissue to tissue ratio at 1 h, 2 µM ([4]; rat, whole blood) was 0.5. The tissue to tissue ratio at 1 h, 10 µM ([4]; rat, whole blood) was 0.47, the half-life ([5]; SD rat plasma, 2.00 μM, 37.0 °C, up to 120 min) was > 372.7 min and the remaining at 10 min, 2 μM ([5]; SD, rat, plasma) was 104%. It also gave a remaining at 0.5 h, 2 μM ([5]; SD, rat, plasma) of 102%, a remaining at 1 h, 2 μM ([5]; SD, rat, plasma) of 113% and a remaining at 2 h, 2 μM ([5]; SD, rat, plasma) of 104%. The half-life ([6]; cynomolgus monkey plasma, 2.00 μM, 37.0 °C, up to 120 min) was > 372.7 min, the remaining at 10 min, 2 μM ([6]; monkey, plasma) was 105% and the remaining at 0.5 h, 2 μM ([6]; monkey, plasma) was 105%. For the same compound, the remaining at 1 h, 2 μM ([6]; monkey, plasma) was 105%, the remaining at 2 h, 2 μM ([6]; monkey, plasma) was 102% and the “Relative MS abundance (%Total)” value ([7]; male SD rat bile) was 100.00%. For the same compound, the “Relative MS abundance (%Total)” value ([7]; male SD rat feces) was 100.00%, the “Relative MS abundance (%Total)” value ([7]; male SD rat urine) was 99.93% and the “Accumulative Dose Recovery” value ([8]; bile, male bile-duct-cannulated SD rats, SC 10 mg/kg single) was 0.00%. The “Accumulative Dose Recovery” value ([8]; feces, male intact SD rats, SC 10 mg/kg single) was 0.00%, the “Tolerability / adverse effects in-life” value ([8]; male SD rats, SC 10 mg/kg single, excretion study) was “No adverse effect was observed” and the dose excreted at 96 h [8, 19] was 86.4%. For the same compound, the dose excreted at 120 h [8, 19] was 86.6%, the dose excreted at 144 h [8, 19] was 86.7% and the dose excreted at 4 h [8, 20] was 0.284%. For the same compound, the dose excreted at 12 h [8, 20] was 0.314%, the dose excreted at 24 h [8, 20] was 0.324% and the dose excreted at 48 h [8, 20] was 0.331%. For the same compound, the dose excreted at 72 h [8, 20] was 0.336%, the dose excreted at 4 h [8, 21] was 0.00168% and the dose excreted at 8 h [8, 21] was 0.00239%. It also gave a dose excreted at 24 h [8, 21] of 1.74%, a dose excreted at 48 h [8, 21] of 2.08% and a dose excreted at 72 h [8, 21] of 2.14%. The dose excreted at 96 h [8, 21] was 2.16%, the dose excreted at 120 h [8, 21] was 2.18% and the dose excreted at 144 h [8, 21] was 2.19%. The dose excreted at 168 h [8, 21] was 2.19%, the dose excreted at 4 h [8, 22] was 56.2% and the dose excreted at 8 h [8, 22] was 78.2%. It also gave a dose excreted at 24 h [8, 22] of 85.8%, a dose excreted at 48 h [8, 22] of 88.2% and a dose excreted at 72 h [8, 22] of 88.5%. It also gave a dose excreted at 96 h [8, 22] of 88.6%, a dose excreted at 120 h [8, 22] of 88.7% and a dose excreted at 144 h [8, 22] of 88.9%. The dose excreted at 168 h [8, 22] was 88.9%, the dose excreted at 4 h [8, 23] was 56.2% and the dose excreted at 8 h [8, 23] was 78.2%. For the same compound, the dose excreted at 24 h [8, 23] was 84%, the dose excreted at 48 h [8, 23] was 86.1% and the dose excreted at 72 h [8, 23] was 86.4%. For the same compound, the dose excreted at 168 h [8, 23] was 86.7%, the “Accumulative Dose Recovery” value ([8]; total (urine + feces), male intact SD rats, SC 10 mg/kg single) was 0.00% and the “Accumulative Dose Recovery” value ([8]; urine, male intact SD rats, SC 10 mg/kg single) was 0.00%. For the same compound, the IC50 [9] was > 100 µM, the IC50 [10] was > 100 µM and the IC50 at 30 min ([11]; human, pooled human liver microsomes) was > 100 µM. For the same compound, the “Time-dependent inhibition of CYP3A” value ([11]; midazolam and testosterone as substrates, cutoff IC50 shift >= 1.5-fold) was “no time-dependent inhibition”, the “Induction of CYP1A2 (enzyme activity and gene expression)” value [12] was “not considered as an inducer” and the IC50 [13] was > 100 µM. For the same compound, the IC50 [14] was > 100 µM.
